Literature values, collected in patent publication US20170246163A1, “METHODS OF IMPROVING BALANCE, GAIT OR BOTH IN PATIENTS WITH NEUROLOGICAL DISEASE” (priority 2016, published 2017).
Like-named read-outs stand apart in the source and are kept apart here.

Key:
[1] = test system: patients with either PD, PD-MCI, or PDD; details: 176 patients with PD, 12 months, p<0.01
[2] = test system: subjects with mild-to-moderate Alzheimer's disease; details: 48 weeks
[3] = test system: subjects with moderate Alzheimer's disease; details: Phase 2
[4] = test system: PD patients experiencing frequent falls; details: crossover versus placebo, p<0.05

Question: Which “lowering of the incidence of falls relative to baseline” value [1] does the source give for `CCN(C)C(=O)Oc1cccc([C@H](C)N(C)C)c1` [rivastigmine] here?
Answer: 50%

Question: With `O=S(=O)(c1ccccc1)c1cnc2c(N3CCNCC3)cccc2c1` [intepirdine, 3-phenylsulfonyl-8-piperazinyl-1yl-quinoline] as the molecule, how does the “subjects who experienced falls” value ([2]; on top of donepezil) read?
Answer: 2%

Question: Which “subjects who experienced falls” value ([2]; donepezil alone) does the source give for `COc1cc2c(cc1OC)C(=O)C(CC1CCN(Cc3ccccc3)CC1)C2` (stereo not drawn) [donepezil] here?
Answer: 6%

Question: What about the “subjects who experienced falls” value ([3]; donepezil alone) of the same molecule?
Answer: 6%

Question: What about the “falls reported while on treatment” value [4] of the same molecule?
Answer: 0.13 falls/day

Question: With `Fc1ccc2c(CCNCc3cccc(OCC(F)(F)C(F)F)c3)c[nH]c2c1` [idalopirdine] as the molecule, how does the “subjects who experienced falls” value ([3]; on top of donepezil) read?
Answer: 2%
